In data set [1] the test system is coronary artery. In words: Blood flow increasing activity in coronary artery of anesthetized dog (intravenous). Format: in vivo. The following applies: i.v. Here is the method: (§1) A dog was anesthetized with pentobarital sodium at a dose of 30 mg/kg (intravenous injection) and, under artificial respiration, the blood flow in the coronary, vertebral and femoral arteries was determined using an electromagnetic blood-flow meter. The blood pressure was also measured simultaneously. The test compound was dissolved in ethanol at a concentration of 1% by weight of the compound and then diluted to a volume of 10 times with a 80% aqueous solution of polyethylene glycol 400. The resulting solution was further diluted with a 0.9% physiological saline solution and administered intravenously into the femoral vein at a dose shown in Tables 1 and 2.

Data set [2] relates to vertebral artery. Nature of the data set: Blood flow increasing activity in vertebral artery of anesthetized dog (intravenous). In kind it is in vivo. The following applies: i.v. As for the experimental part:
as §1

Data set [3] relates to femoral artery. In words: Blood flow increasing activity in femoral artery of anesthetized dog (intravenous). Format: in vivo. The following applies: i.v. Here is the method: as §1
A short description of data set [4]: in vivo. The following applies: mouse, oral, ddy male mice, mortality one week after administration.
A short description of data set [5]: Stability to light (sun light, quartz dish, visual appearance). In kind it is physicochemical. Further details: key to Change in appearance on light exposure: (-): No change.
Data set [6] concerns coronary, vertebral and femoral arteries. In words: Blood flow increasing / vasodilating activity in coronary, vertebral and femoral arteries (overall statements). Format: in vivo, dog. Conditions: Table 2. As for the experimental part:
as §1

Data set [7] has as its system enucleated heart of guinea-pig. Nature of the data set: Effect on heart systole, enucleated heart of guinea-pig (Langendorf method). Here is the method:
(§2) The effects of the compounds of this invention on the heat systole and the perfusion volume in the coronary artery in enucleated heart of guinea-pig were determined in accordance with the Langendorf method.

Data set [8] relates to coronary artery in enucleated heart of guinea-pig. In words: Effect on perfusion volume in coronary artery, enucleated heart of guinea-pig (Langendorf method). Here is the method: as §2
For data set [9] the following is noted: German OLS Nos. 2,117,571 and 2,117,573; cited from earlier work.
Where [10] appears, read: 3 mg/kg, Table 2 (separate test).
[11] abbreviates: exposure for a total of 8 hours.

What is called LD50 is the dose at which mortality reaches 50%.

With `COC(=O)C1=C(C)NC(C)=C(C(=O)OCC2CC2)C1c1cccc([N+](=O)[O-])c1` (stereo not drawn) [Compound C, Cyclopropylmethyl methyl 2,6-dimethyl-4-(3-nitrophenyl)-1,4-dihydropyridine-3,5-dicarboxylate], the “Duration of Activity, Coronary Artery” value stood at 49 in data set [1] (setting [10]) and 66 in data set [1] (10 mg/kg, Table 2). The “Total Increase in Blood Flow, Coronary Artery” value in [1] (setting [10]) came to 580 mL; in data set [1] (10 mg/kg, Table 2), 2772 mL. In addition, the “Duration of Activity, Vertebral Artery” value in data set [2] (setting [10]) was 37; in [2] (10 mg/kg, Table 2), 78. In addition, the “Total Increase in Blood Flow, Vertebral Artery” value in data set [2] (setting [10]) amounted to 463 mL; in data set [2] (10 mg/kg, Table 2), 1691 mL. The “Duration of Activity, Femoral Artery” value in data set [3] (setting [10]) was found to be 26; in [3] (10 mg/kg, Table 2), 60. In addition, the “Total Increase in Blood Flow, Femoral Artery” value came to 367 mL in data set [3] (setting [10]) and 811 mL in [3] (10 mg/kg, Table 2). Also, in data set [4], the LD50 at 168 h worked out at 1450 mg/kg. Also, the “Change in appearance on light exposure” value in [5] (5 min. sun light), in data set [5] (1 hour sun light), in data set [5] (2 hours sun light), in data set [5] (3 hours sun light) and in [5] (8 hours sun light) was “(-)” each time. In addition, the “changes on light exposure” value in data set [5] (setting [11]) is “did not show any changes”. Also, the “duration of vasodilation effect compared with Compound F” value in [6] was “significantly higher”. Moreover, the “vasodilation effect compared with Compound F” value in data set [6] was “significantly higher”.

As for `COC(=O)C1=C(C)NC(C)=C(C(=O)OCC(C)=O)C1c1ccccc1[N+](=O)[O-]` (stereo not drawn) [Compound B, Methyl 2-oxopropyl 2,6-dimethyl-4-(2-nitrophenyl)-1,4-dihydropyridine-3,5-dicarboxylate], the “Duration of Activity, Coronary Artery” value in [1] (1 mg/kg, Table 1) was 10.0; in [1] (3 mg/kg, Table 1) it was 35.0. The “Total Increase in Blood Flow, Coronary Artery” value in data set [1] (1 mg/kg, Table 1) is 37 mL; in data set [1] (3 mg/kg, Table 1) it was 392 mL. Further, the “Duration of Activity, Vertebral Artery” value was found to be 7.5 in data set [2] (1 mg/kg, Table 1) and 35.5 in [2] (3 mg/kg, Table 1). Also, the “Total Increase in Blood Flow, Vertebral Artery” value in data set [2] (1 mg/kg, Table 1) was 29 mL; in data set [2] (3 mg/kg, Table 1), 309 mL. Besides, the “Duration of Activity, Femoral Artery” value in data set [3] (1 mg/kg, Table 1) is reported as 4.0; in data set [3] (3 mg/kg, Table 1), 58.5. Besides, the “Total Increase in Blood Flow, Femoral Artery” value was 20 mL in [3] (1 mg/kg, Table 1) and 774 mL in [3] (3 mg/kg, Table 1).

Take `CCCOC(=O)C1=C(C)NC(C)=C(C(=O)OCC2CC2)C1c1cccc([N+](=O)[O-])c1` (stereo not drawn) [Compound E, Cyclopropylmethyl propyl 2,6-dimethyl-4-(3-nitrophenyl)-1,4-dihydropyridine-3,5-dicarboxylate]: the “Duration of Activity, Coronary Artery” value in [1] (setting [10]) is given as 22. In addition, the “Total Increase in Blood Flow, Coronary Artery” value in data set [1] (setting [10]) came out at 148 mL. The “Duration of Activity, Vertebral Artery” value in data set [2] (setting [10]) worked out at 19. For the same molecule, in data set [2] (setting [10]), the “Total Increase in Blood Flow, Vertebral Artery” value was found to be 262 mL. In addition, the “Duration of Activity, Femoral Artery” value in [3] (setting [10]) stood at 20. Further, the “Total Increase in Blood Flow, Femoral Artery” value in [3] (setting [10]) was 285 mL. The molecule also had a median lethal dose (LD50) at 168 h in data set [4] of 2000 mg/kg. Moreover, the “Change in appearance on light exposure” value in [5] (5 min. sun light), in [5] (1 hour sun light), in [5] (2 hours sun light), in data set [5] (3 hours sun light) and in data set [5] (8 hours sun light) was “(-)” throughout. Besides, the “changes on light exposure” value in data set [5] (setting [11]) is “did not show any changes”.

As for `COC(=O)C1=C(C)NC(C)=C(C(=O)OCC2(C)OCCO2)C1c1cccc([N+](=O)[O-])c1` (stereo not drawn) [Compound A, Methyl 2,2-ethylenedioxypropyl 2,6-dimethyl-4-(3-nitrophenyl)-1,4-dihydropyridine-3,5-dicarboxylate], the “Duration of Activity, Coronary Artery” value was determined as 5.5 in [1] (1 mg/kg, Table 1) and 17.5 in data set [1] (3 mg/kg, Table 1). Besides, the “Total Increase in Blood Flow, Coronary Artery” value in data set [1] (1 mg/kg, Table 1) was determined as 22 mL; in data set [1] (3 mg/kg, Table 1), 164 mL. For the same molecule, the “Duration of Activity, Vertebral Artery” value in data set [2] (1 mg/kg, Table 1) came out at 11.7; in [2] (3 mg/kg, Table 1), 27.3. Also, the “Total Increase in Blood Flow, Vertebral Artery” value in [2] (1 mg/kg, Table 1) came to 64 mL; in [2] (3 mg/kg, Table 1), 288 mL. Moreover, the “Duration of Activity, Femoral Artery” value turned out to be 9.0 in [3] (1 mg/kg, Table 1) and 19.3 in data set [3] (3 mg/kg, Table 1). The “Total Increase in Blood Flow, Femoral Artery” value in data set [3] (1 mg/kg, Table 1) was found to be 104 mL; in data set [3] (3 mg/kg, Table 1), 316 mL. Moreover, the “Effects on Heart Systole: Duration of Effect” value in [7] (dose 1 × 10^-6 g) was determined as 4.6 min; in [7] (dose 1 × 10^-7 g), 1.3 min. In addition, the results for the “Effects on Coronary Artery: Duration of Effect” value in data set [8] (dose 1 × 10^-6 g) and in data set [8] (dose 1 × 10^-7 g) were 34.6 min and 15.6 min, respectively. In addition, the “Effects on Coronary Artery: Total Perfusion Volume” value is recorded as 737.8 drops in data set [8] (dose 1 × 10^-6 g) and 165.0 drops in data set [8] (dose 1 × 10^-7 g). The “Change in appearance on light exposure” value in [5] (5 min. sun light), in data set [5] (1 hour sun light), in data set [5] (2 hours sun light) and in data set [5] (3 hours sun light) was “(-)” in each case. Moreover, the “changes on light exposure” value in data set [5] (setting [11]) is given as “did not show any changes”.

Regarding `COC(=O)C1=C(C)NC(C)=C(C(=O)OCC(C)C)C1c1ccccc1[N+](=O)[O-]` (stereo not drawn) [Compound F, Isobutyl methyl 2,6-dimethyl-4-(2-nitrophenyl)-1,4-dicarboxylate, reference compound], in data set [1] (setting [10]), the “Duration of Activity, Coronary Artery” value turned out to be 31 and the “Total Increase in Blood Flow, Coronary Artery” value was determined as 353 mL. Further, in data set [1] (10 mg/kg, Table 2), the “Duration of Activity, Coronary Artery” value is given as 55 and the “Total Increase in Blood Flow, Coronary Artery” value came to 863 mL. For the same molecule, in data set [2] (setting [10]), the “Duration of Activity, Vertebral Artery” value worked out at 34 and the “Total Increase in Blood Flow, Vertebral Artery” value turned out to be 347 mL. For the same molecule, in [3] (setting [10]), the “Duration of Activity, Femoral Artery” value is 27 and the “Total Increase in Blood Flow, Femoral Artery” value amounted to 365 mL. In addition, in data set [3] (10 mg/kg, Table 2), the “Duration of Activity, Femoral Artery” value was 58 and the “Total Increase in Blood Flow, Femoral Artery” value is 874 mL. The molecule also gave a median lethal dose (LD50) at 168 h in [4] of 465 mg/kg. Further, the “color changes on light exposure” value in [5] (5 minutes' exposure) is reported as “slight color changes”. For the same molecule, the “changes on light exposure” value in [5] (after more than 5 minutes' exposure ("thereafter")) was “marked changes”.

In the case of `CCOC(=O)C1=C(C)NC(C)=C(C(=O)OCC2CC2)C1c1cccc([N+](=O)[O-])c1` (stereo not drawn) [Compound D, Cyclopropylmethyl ethyl 2,6-dimethyl-4-(3-nitrophenyl)-1,4-dihydropyridine-3,5-dicarboxylate], the “Duration of Activity, Coronary Artery” value in [1] (setting [10]) is listed as 32. Also, the “Total Increase in Blood Flow, Coronary Artery” value in data set [1] (setting [10]) is 308 mL. The “Duration of Activity, Vertebral Artery” value in data set [2] (setting [10]) was determined as 17. In addition, the “Total Increase in Blood Flow, Vertebral Artery” value in data set [2] (setting [10]) turned out to be 212 mL. Moreover, in [3] (setting [10]), the “Duration of Activity, Femoral Artery” value came to 16. In addition, the “Total Increase in Blood Flow, Femoral Artery” value in data set [3] (setting [10]) worked out at 173 mL. In data set [4], this molecule gave a median lethal dose (LD50) at 168 h of 2000 mg/kg. Further, the “Change in appearance on light exposure” value in data set [5] (5 min. sun light), in data set [5] (1 hour sun light), in data set [5] (2 hours sun light), in data set [5] (3 hours sun light) and in [5] (8 hours sun light) was “(-)” throughout. For the same molecule, the “changes on light exposure” value in data set [5] (setting [11]) is “did not show any changes”.

Turning to `CCOC(=O)C1=C(C)NC(C)=C(C(=O)OC2CCCCC2)C1c1cccc([N+](=O)[O-])c1` (stereo not drawn) [cyclohexyl ethyl 2,6-dimethyl-4-(3-nitrophenyl)-1,4-dihydropyridine-3,5-dicarboxylate], the “activities, reported” value in data set [9] was “weak activities”.

The record behind these values is US4446325A, “1,4-Dihydropyridine compounds” (priority 1981, dated 1984).
